Paper PMC9482650, “Quantitative fragmentomics allow affinity mapping of interactomes” (Nature Communications, 2022)
Like-named read-outs stand apart in the source and are kept apart here. Numbered stars: 1 amine (or outer) side, 2 acyl side, 3 side chain; on linkers, the order of the positions; unused ones are H or OH. Ends that are not written are not given here. Peptide text beside a SMILES is read from it. * marks the point of attachment. X1 = O=C(CCCC[C@@H]1SC[C@@H]2NC(=O)N[C@@H]21)NCCCOCCOCCOCCCN*; Suc = O=C(CCC(=O)[*:2])[*:1]

Key:
[1] = test system: HeLa cell extract preys; assay: PDZ-AP-MS, biotinylated MBP-PDZ baits; type: binding, human; settings: for Ratio: fold enrichment of prey; for Difference: log2 enrichment of prey
Experimental: (§1) For PDZ-AP-MS experiments, PDZ domains were cloned as His6-AviTag-MBP-PDZ constructs. For co-expression with BirA, E. coli BL21(DE3) cells were co-transformed with His6-AviTag-MBP, or His6-AviTag-MBP-PDZ-coding and PET21a-BirA (Addgene #20857) plasmids. Simultaneously to IPTG induction, 50 µM biotin was added to the media. After cell harvesting, the lysis buffer was also supplemented with 50 µM biotin. Otherwise, expression and double affinity purification was identical as previously described in details.
(§2) For PBM-AP-MS experiments, 30 μl streptavidin resin was mixed with biotin or peptide at 50–60 μM concentration in 6–6.5 resin volume for 60 min to achieve resin saturation. For PDZ-AP-MS experiments, 30 μl streptavidin resin was mixed with biotinylated MBP or MBP-PDZ at 40-50 μM concentration in >1000× resin volume for 60 min to achieve resin saturation. After saturation, resins were washed a single time (ten resin volume, holdup buffer), and were depleted with biotin (1 mM biotin, 5–10 resin volume, 10 min). Finally, resins were washed two times. 0.5 ml 2 mg/ml cell lysate was added to the dry resin (1 mg total input) and were incubated at 4 °C for 2 h. Then, the beads were washed three times with 10 resin volume buffer containing: 50 mM TRIS pH 8.5, 150 mM NaCl, 1% TritonX-100, 10× complete EDTA-free protease inhibitor cocktail, 2 mM EDTA, 1 mM TCEP. Then, the beads were washed two times with ten resin volume buffer containing: 50 mM TRIS pH 8.5, 150 mM NaCl, 1 mM TCEP. Finally, captured protein was eluted from the resin in two steps and the eluted fractions were pooled. For each elution the beads were incubated for 30 min with three resin volume buffer containing: 20 mM TRIS pH8.5, 100 mM NaCl, 500 μM TCEP, 8 M Urea. Between each step, the beads were separated by mild centrifugation and the supernatant was removed by gentle pipetting.
(§3) The samples were precipitated with TCA 20% overnight at 4 °C and centrifuged at 14,000 rpm for 10 min at 4 °C. The protein pellets were washed twice with 1 mL cold acetone and air dried. The protein extracts were solubilized in urea 8 M, reduced with 5 mM TCEP for 30 min, and alkylated with 10 mM iodoacetamide for 30 min in the dark. Double digestion was performed at 37 °C with 500 ng endoproteinase Lys-C for 4 h, followed by fourfold dilution and an overnight digestion with 500 ng trypsin. Peptide mixtures were then desalted on C18 spin-column and dried on Speed-Vacuum.
(§4) Samples were analyzed using an Ultimate 3000 nano-RSLC (Thermo Scientific, San Jose California) coupled in line with a LTQ-Orbitrap ELITE mass spectrometer via a nano-electrospray ionization source (Thermo Scientific, San Jose California). Peptide mixtures were injected in 0.1% TFA on a C18 Acclaim PepMap100 trap-column (75 µm ID × 2 cm, 3 µm, 100 Å, Thermo Fisher Scientific) for 3 min at 5 µL/min with 2% ACN, 0.1% FA in H2O and then separated on a C18 Accucore nano-column (75 µm ID × 50 cm, 2.6 µm, 150 Å, Thermo Fisher Scientific) at 220 nl/min and 38 °C with a 90 min linear gradient from 5% to 30% buffer B (A: 0.1% FA in H2O/B: 99% ACN, 0.1% FA in H2O), regeneration at 5% B. The mass spectrometer was operated in positive ionization mode, in data-dependent mode with survey scans from m/z 350–1500 acquired in the Orbitrap at a resolution of 120,000 at m/z 400. The 20 most intense peaks from survey scans were selected for further fragmentation in the Linear Ion Trap with an isolation window of 2.0 Da and were fragmented by CID with normalized collision energy of 35%. (TOP20CID method) Unassigned and single charged states were excluded from fragmentation. The Ion Target Value for the survey scans (in the Orbitrap) and the MS2 mode (in the Linear Ion Trap) were set to 1E6 and 5E3 respectively and the maximum injection time was set to 100 ms for both scan modes. Dynamic exclusion was set to 20 s after one repeat count with mass width at ±10 ppm. […]

[2] = test system: HaCat cell extract preys; assay: PDZ-AP-MS, biotinylated MBP-PDZ baits; type: binding, human; settings: for Difference log2: enrichment of prey
Experimental: as §1, §2, §3, §4

[3] = target: SNX27 PDZ (Homo sapiens, UniProt Q96L92); assay: Holdup assay; type: binding
[4] = target: SCRIB_1 PDZ (Homo sapiens, UniProt Q14160); assay: Holdup assay; type: binding
[5] = target: T1, SCRIB2 PDZ (Homo sapiens, UniProt Q14160); assay: Holdup assay; type: binding
T1 sequence (Q14160 862-950 limits assumed): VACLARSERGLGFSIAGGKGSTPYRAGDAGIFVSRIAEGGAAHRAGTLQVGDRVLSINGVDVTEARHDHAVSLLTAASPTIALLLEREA

[6] = target: T2, SYNJ2BP PDZ (Homo sapiens, UniProt P57105); assay: Holdup assay; type: binding
T2 sequence (P57105 13-100 limits assumed): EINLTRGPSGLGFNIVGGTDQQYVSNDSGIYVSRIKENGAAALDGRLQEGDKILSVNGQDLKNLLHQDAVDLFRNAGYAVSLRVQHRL

[7] = target: DLG1_2 PDZ (Homo sapiens, UniProt Q12959); assay: Holdup assay; type: binding
[8] = target: DLG1_1 PDZ (Homo sapiens, UniProt Q12959); assay: Holdup assay; type: binding
[9] = target: T3, TX1BP3 PDZ (Homo sapiens, UniProt O14907); assay: Holdup assay; type: binding
T3 sequence (O14907 15-112 limits assumed): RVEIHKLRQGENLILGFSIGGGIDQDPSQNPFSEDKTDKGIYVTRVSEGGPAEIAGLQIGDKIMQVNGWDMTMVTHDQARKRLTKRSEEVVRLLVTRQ

[10] = target: MAGI2_2 PDZ (Homo sapiens, UniProt Q86UL8); assay: Competitive fluorescence polarization (FP) assay; type: binding; settings: read-out: pKd FP (converted)
[11] = target: DLG4_3 PDZ (Homo sapiens, UniProt P78352); assay: Competitive fluorescence polarization (FP) assay; type: binding; settings: read-out: pKd FP (converted)
[12] = test system: Jurkat cell extract preys; assay: PDZ-AP-MS, biotinylated MBP-PDZ baits; type: binding, human; settings: for Difference log2: enrichment of prey
Experimental: as §1, §2, §3, §4

[13] = bait SCRIB_2 PDZ, fold change of prey
[14] = PBM motif of the named protein vs SCRIB_1 PDZ, read-out: pKd values – domain-motif, SCRIB_1 (converted)
[15] = PBM motif of the named protein vs SCRIB_2 PDZ, read-out: pKd values – domain-motif, SCRIB_2 (converted)
[16] = holdup affinity of the PBM peptide of the named protein, sheet PBMcomplexome, lower sub-table
[17] = holdup affinity of the PBM peptide of the named protein, sheet PBMcomplexome, lower sub-table, 3.5 appears to be the floor for no detectable binding, read-out: affinity of PBM to DLG1_2 (pKd) (converted)
[18] = holdup affinity of the PBM peptide of the named protein, sheet PBMcomplexome, lower sub-table, 3.5 appears to be the floor for no detectable binding, read-out: affinity of PBM to TX1BP3 (pKd) (converted)
[19] = PBM motif of the named protein vs DLG1_2 PDZ, read-out: pKd values – domain-motif, DLG1_2 (converted)
[20] = PBM motif of the named protein vs TX1BP3 PDZ, read-out: pKd values – domain-motif, TX1BP3 (converted)
[21] = PBM motif of the named protein vs DLG1_1 PDZ, read-out: pKd values – domain-motif, DLG1_1 (converted)
[22] = bait SCRIB_1 PDZ, fold change of prey

Chain of SCRIB_1 PDZ (Q14160 728-815 limits assumed): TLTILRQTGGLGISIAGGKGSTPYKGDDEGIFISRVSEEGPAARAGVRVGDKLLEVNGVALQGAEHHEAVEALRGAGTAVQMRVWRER
Chain of MAGI2_2 PDZ (Q86UL8 426-510 limits assumed): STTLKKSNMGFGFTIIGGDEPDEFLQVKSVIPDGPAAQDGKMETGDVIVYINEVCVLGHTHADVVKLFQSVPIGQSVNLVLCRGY
Chain of DLG4_3 PDZ (P78352 313-393 limits assumed): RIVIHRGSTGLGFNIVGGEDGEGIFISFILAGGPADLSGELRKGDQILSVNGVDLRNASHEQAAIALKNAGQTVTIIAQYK

PLEC was tested, and the Ratio ([1]; bait TX1BP3 PDZ vs MBP control) was 24.4238 and the Difference ([1]; bait TX1BP3 PDZ vs MBP control) was 4.61.
In the case of EPRS1, the “Difference log2” value ([2]; bait SCRIB_2 PDZ vs MBP) is reported as 4.198 and the “Ratio SCRIB_2/MBP” value [2, 13] is reported as 18.3552.
With IDNDTESTAL [ARHGAP17] the Kd [3] was 10.7 µM, the Kd [4, 14] was 12.3 µM and the Kd [5, 15] was 245 µM.
Work on QRQARSETLV [HPV59E6] yielded a Kd [6] of 15.4 µM.
With IQREDQETAV [DGKZ] the Kd [3, 16] was 1 µM, the Kd [7, 17] was 6.92 µM and the Kd ([8]; holdup affinity of the PBM peptide of the named protein, sheet PBMcomplexome, lower sub-table, 3.5 appears to be the floor for no detectable binding, read-out: affinity of PBM to DLG1_1 (pKd) (converted)) was 18.6 µM. It also gave a Kd ([4]; holdup affinity of the PBM peptide of the named protein, sheet PBMcomplexome, lower sub-table, 3.5 appears to be the floor for no detectable binding, read-out: affinity of PBM to SCRIB_1 (pKd) (converted)) of 19.5 µM, a Kd [9, 18] of 66.1 µM and a Kd ([5]; holdup affinity of the PBM peptide of the named protein, sheet PBMcomplexome, lower sub-table, 3.5 appears to be the floor for no detectable binding, read-out: affinity of PBM to SCRIB_2 (pKd) (converted)) of 13.8 µM.
Work on KKYVDAETSL [SLC4A7] yielded a Kd [3] of 1.95 µM, a Kd [7, 19] of 275 µM and a Kd [4, 14] of 2.88 µM. The Kd [9, 20] was 151 µM and the Kd [5, 15] was 170 µM.
In the case of ATKDKKITTV [EXOC4], the Kd [3] is reported as 41.7 µM, the Kd [7, 19] is reported as 1.23 µM and the Kd [8, 21] is reported as 8.91 µM. For the same compound, the Kd [4, 14] was 141 µM, the Kd [9, 20] was 123 µM and the Kd [5, 15] was 324 µM.
GFGEERESIL [KIDINS220] was tested, and the Kd [3, 16] was 2.57 µM, the Kd [7, 17] was 132 µM and the Kd [9, 18] was 186 µM.
Work on VKPQVSESKL [ACOT8] yielded a Kd [3] of 4.57 µM, a Kd [4, 14] of 47.9 µM and a Kd [5, 15] of 302 µM.
Work on TVASEKESVM [SLC1A5] yielded a Kd [3] of 5.13 µM, a Kd [4, 14] of 6.31 µM and a Kd [9, 20] of 204 µM.
With `CC(C)C[C@H](NC(=O)[C@H](CCC(N)=O)NC(=O)[C@@H](NC(=O)[C@H](CCC(=O)O)NC(=O)[C@H](CCC(=O)O)NC(=O)[C@H](CCCNC(=N)N)NC(=O)[C@H](CO)NC(=O)[C@H](CC(=O)O)NC(=O)[C@H](CCC(N)=O)NC(=O)CNC(=O)CCC(=O)NCCCOCCOCCOCCCNC(=O)CCCC[C@@H]1SC[C@@H]2NC(=O)N[C@@H]21)[C@@H](C)O)C(=O)O` [KCNT2] ({X1-Suc}-GQDSREETQL-OH) the Kd [10] was 248 µM and the Kd [11] was 241 µM.
With SEKHFRETEV [HTLV1 Tax1] the Kd [6] was 0.912 µM.
With SRPHTNETSL [MCC] the Kd [3] was 1.91 µM, the Kd [7, 19] was 64.6 µM and the Kd [8, 21] was 191 µM. For the same compound, the Kd [4, 14] was 5.5 µM, the Kd [9, 20] was 75.9 µM and the Kd [5, 15] was 52.5 µM.
SCRIB was tested, and the “Difference log2” value ([2]; bait SCRIB_1 PDZ vs MBP) was 13.0145, the “Ratio SCRIB_1/MBP” value [2, 22] was 8274.77 and the Difference ([1]; bait SCRIB_2 PDZ (biotinylated MBP-PDZ) vs MBP control) was 6.449. For the same compound, the Ratio ([1]; bait SCRIB_2 PDZ vs MBP control) was 87.3698, the “Difference log2” value ([12]; bait SCRIB_1 PDZ vs MBP) was 8.3787 and the “Ratio SCRIB_1/MBP” value [12, 22] was 332.843. For the same compound, the “Difference log2” value ([12]; bait SCRIB_2 PDZ vs MBP) was 8.333 and the “Ratio SCRIB_2/MBP” value [12, 13] was 322.542.
Compound EKQAKGDTEF [CACYBP] has a Kd [3] of 209 µM.
QPRTWLQSPV [RTKN] gave a Kd [3] of 49 µM, a Kd [7, 19] of 50.1 µM and a Kd [8, 21] of 182 µM. The Kd [4, 14] was 204 µM and the Kd [9, 20] was 0.891 µM.
LSEFKAMDSI [CTNNA1] showed a Kd [9, 20] of 339 µM.
